Results on 40 compounds are retold here after US9221827B2, “Antimicrobial compounds and methods of making and using the same” (Melinta Therapeutics, Inc., priority 2011, dated 2015).

The test deals with Escherichia coli strain ATCC25922. The test is described as follows: standard microdilution assay to determine minimum inhibitory concentrations (MICs). The format is cell-based. The settings on record: Escherichia coli strain ATCC25922, microdilution. The gist of the method:
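Broth microdilution per CLSI (M7-A8/M100-S20), 100 μl final volume, with reference-strain quality control; MIC is the lowest inhibitory concentration. Scored "+"/"−" against a 16 micrograms/ml cutoff, "N/A" where unavailable.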
In the case of `CCc1cc(CCCC(C)N)cc(-c2cc3cn(-c4ccc(CNCCCNC(=N)N)cc4)c(=O)nc3[nH]2)c1Cl` (stereo not shown) [Compound 283], the “E. coli ATCC25922 MIC” value was “+ (a “+” indicates that the compound has an MIC value of 16 micrograms/ml or less)”.
Next, `CCc1cc(CCCC(C)NC(=N)N)cc(-c2cc3cn(-c4ccc(CNCCCNC(=N)N)cc4)c(=O)nc3[nH]2)c1Cl` (stereo not shown) [Compound 284]: “+ (a “+” indicates that the compound has an MIC value of 16 micrograms/ml or less)”; `CCc1cc(CCCCNC(=N)N)cc(-c2cc3cn(-c4ccc(CNCCCNC(=N)N)cc4)c(=O)nc3[nH]2)c1Cl` [Compound 285]: “+ (a “+” indicates that the compound has an MIC value of 16 micrograms/ml or less)”.
Next, `CC(N)CCCc1cc(OC(F)(F)F)c(F)c(-c2cc3cn(-c4ccc(CNCCCNC(=N)N)cc4)c(=O)nc3[nH]2)c1` (stereo not shown) [Compound 286]: “+ (a “+” indicates that the compound has an MIC value of 16 micrograms/ml or less)”; `CNC(C)CCCc1cc(-c2cc3cn(-c4ccc(CNCCCNC(=N)N)cc4)c(=O)nc3[nH]2)cc(C(F)(F)F)c1` (stereo not shown) [Compound 287]: “+ (a “+” indicates that the compound has an MIC value of 16 micrograms/ml or less)”.
Next, `CC(N)CCCc1cc(SC(F)(F)F)c(Cl)c(-c2cc3cn(-c4ccc(CNCCCNC(=N)N)cc4)c(=O)nc3[nH]2)c1` (stereo not shown) [Compound 288]: “+ (a “+” indicates that the compound has an MIC value of 16 micrograms/ml or less)”; `CC(N)CCCc1cc(SC(F)(F)F)c(Cl)c(-c2cc3cn(-c4ccc(C(C)NCCCNC(=N)N)cc4)c(=O)nc3[nH]2)c1` (stereo not shown) [Compound 289]: “+ (a “+” indicates that the compound has an MIC value of 16 micrograms/ml or less)”.
In the case of `CNC(C)CCCc1cc(-c2cc3cn(-c4ccc(C(C)NCCCNC(=N)N)cc4)c(=O)nc3[nH]2)cc(C(F)(F)F)c1` (stereo not shown) [Compound 290], the “E. coli ATCC25922 MIC” value is “+ (a “+” indicates that the compound has an MIC value of 16 micrograms/ml or less)”.
Consider `CNC(C)CCCc1cc(Cl)c(F)c(-c2cc3cn(-c4ccc(CNCCCNC(=N)N)cc4)c(=O)nc3[nH]2)c1` (stereo not shown) [Compound 292], for which the “E. coli ATCC25922 MIC” value is “+ (a “+” indicates that the compound has an MIC value of 16 micrograms/ml or less)”.
The entry for `N=C(N)NCCCNCc1ccc(-n2cc3cc(-c4cc(CCCCN)cc(C(F)(F)F)c4C(F)(F)F)[nH]c3nc2=O)cc1` [Compound 293] is “+ (a “+” indicates that the compound has an MIC value of 16 micrograms/ml or less)”; for `CNC(C)CCCc1cc(SC(F)(F)F)cc(-c2cc3cn(-c4ccc(CNCCCNC(=N)N)cc4)c(=O)nc3[nH]2)c1` (stereo not shown) [Compound 294] it is “+ (a “+” indicates that the compound has an MIC value of 16 micrograms/ml or less)”; for `CC(C)(N)CCCc1cc(Cl)c(F)c(-c2cc3cn(-c4ccc(CNCCCNC(=N)N)cc4)c(=O)nc3[nH]2)c1` [Compound 295] it is “+ (a “+” indicates that the compound has an MIC value of 16 micrograms/ml or less)”.
The entry for `C[C@H](NCCCNC(=N)N)c1ccc(-n2cc3cc(-c4cc(CCCC(C)(C)N)cc(Cl)c4F)[nH]c3nc2=O)cc1` [Compound 296] is “+ (a “+” indicates that the compound has an MIC value of 16 micrograms/ml or less)”.
Next, `CC(N)CCCc1cc(OC(F)F)c(F)c(-c2cc3cn(-c4ccc(CNCCCNC(=N)N)cc4)c(=O)nc3[nH]2)c1` (stereo not shown) [Compound 297]: “+ (a “+” indicates that the compound has an MIC value of 16 micrograms/ml or less)”.
Turning to `CC(CCCc1cc(Cl)c(F)c(-c2cc3cn(-c4ccc(CNCCCNC(=N)N)cc4)c(=O)nc3[nH]2)c1)N(C)C` (stereo not shown) [Compound 298], the “E. coli ATCC25922 MIC” value was “+ (a “+” indicates that the compound has an MIC value of 16 micrograms/ml or less)”.
Regarding `CC(N)CCCc1cc(OC(F)F)c(F)c(-c2cc3cn(-c4ccc(C(C)NCCCNC(=N)N)cc4)c(=O)nc3[nH]2)c1` (stereo not shown) [Compound 299], the “E. coli ATCC25922 MIC” value is “+ (a “+” indicates that the compound has an MIC value of 16 micrograms/ml or less)”.
Next, `CCc1cc(CCCC(C)N)cc(-c2cc3cn(-c4ccc(C(C)NCCCNC(=N)N)cc4)c(=O)nc3[nH]2)c1F` (stereo not shown) [Compound 300]: “+ (a “+” indicates that the compound has an MIC value of 16 micrograms/ml or less)”; `CCc1cc(CCCC(C)N)cc(-c2cc3cn(-c4ccc(CNCCCNC(=N)N)cc4)c(=O)nc3[nH]2)c1F` (stereo not shown) [Compound 301]: “+ (a “+” indicates that the compound has an MIC value of 16 micrograms/ml or less)”.
Next, `C[C@@H](CCCc1cc(SC(F)(F)F)cc(-c2cc3cn(-c4ccc(CNCCCNC(=N)N)cc4)c(=O)nc3[nH]2)c1)N(C)C` [Compound 302]: “+ (a “+” indicates that the compound has an MIC value of 16 micrograms/ml or less)”; `CC(C)(N)CCCc1cc(SC(F)(F)F)cc(-c2cc3cn(-c4ccc(CNCCCNC(=N)N)cc4)c(=O)nc3[nH]2)c1` [Compound 303]: “+ (a “+” indicates that the compound has an MIC value of 16 micrograms/ml or less)”; `C[C@H](NCCCNC(=N)N)c1ccc(-n2cc3cc(-c4cc(CCCC(C)(C)N)cc(SC(F)(F)F)c4)[nH]c3nc2=O)cc1` [Compound 304]: “+ (a “+” indicates that the compound has an MIC value of 16 micrograms/ml or less)”.
With `C[C@H](N)CCCc1cc(SC(F)F)cc(-c2cc3cn(-c4ccc(CNCCCNC(=N)N)cc4)c(=O)nc3[nH]2)c1` [Compound 305], the “E. coli ATCC25922 MIC” value is listed as “+ (a “+” indicates that the compound has an MIC value of 16 micrograms/ml or less)”.
Take `C[C@H](N)CCCc1cc(CC(F)(F)F)cc(-c2cc3cn(-c4ccc(CNCCCNC(=N)N)cc4)c(=O)nc3[nH]2)c1` [Compound 306]: the “E. coli ATCC25922 MIC” value was “+ (a “+” indicates that the compound has an MIC value of 16 micrograms/ml or less)”.
The entry for `N=C(N)NCCCNCc1ccc(-n2cc3cc(-c4cc(CCC5(CN)CC5)cc(SC(F)(F)F)c4)[nH]c3nc2=O)cc1` [Compound 307] is “+ (a “+” indicates that the compound has an MIC value of 16 micrograms/ml or less)”.
The entry for `C[C@H](N)CCCc1cc(SC(F)F)cc(-c2cc3cn(-c4ccc([C@H](C)NCCCNC(=N)N)cc4)c(=O)nc3[nH]2)c1` [Compound 308] is “+ (a “+” indicates that the compound has an MIC value of 16 micrograms/ml or less)”; for `C[C@@H](CCCc1cc(-c2cc3cn(-c4ccc(CNCCCNC(=N)N)cc4)c(=O)nc3[nH]2)cc(C(F)(F)F)c1)N(C)C` [Compound 309] it is “+ (a “+” indicates that the compound has an MIC value of 16 micrograms/ml or less)”.
As to `C[C@H](NCCCNC(=N)N)c1ccc(-n2cc3cc(-c4cc(CCC5(CN)CC5)cc(SC(F)(F)F)c4)[nH]c3nc2=O)cc1` [Compound 310], the “E. coli ATCC25922 MIC” value is on record as “+ (a “+” indicates that the compound has an MIC value of 16 micrograms/ml or less)”.
Next, `C[C@H](N)COCc1cc(OC(F)(F)F)cc(-c2cc3cn(-c4ccc(CNCCCNC(=N)N)cc4)c(=O)nc3[nH]2)c1` [Compound 311]: “+ (a “+” indicates that the compound has an MIC value of 16 micrograms/ml or less)”.
For `C[C@H](N)C/C=C/c1cc(Cl)c(F)c(-c2cc3cn(-c4ccc(CNCCCNC(=N)N)cc4)c(=O)nc3[nH]2)c1` [Compound 312], the “E. coli ATCC25922 MIC” value was “+ (a “+” indicates that the compound has an MIC value of 16 micrograms/ml or less)”.
As for `Cc1cc(CCC[C@H](C)N)cc(-c2cc3cn(-c4ccc(CNCCCNC(=N)N)cc4)c(=O)nc3[nH]2)c1Cl` [Compound 313], the “E. coli ATCC25922 MIC” value is recorded as “+ (a “+” indicates that the compound has an MIC value of 16 micrograms/ml or less)”.
Next, `C[C@@H](CN)OCc1cc(-c2cc3cn(-c4ccc(CNCCCNC(=N)N)cc4)c(=O)nc3[nH]2)cc(C(F)(F)F)c1` [Compound 314]: “+ (a “+” indicates that the compound has an MIC value of 16 micrograms/ml or less)”.
As to `C[C@H](NCCCNC(=N)N)c1ccc(-n2cc3cc(-c4cc(CO[C@@H](C)CN)cc(C(F)(F)F)c4)[nH]c3nc2=O)cc1` [Compound 315], the “E. coli ATCC25922 MIC” value was “+ (a “+” indicates that the compound has an MIC value of 16 micrograms/ml or less)”.
Take `C[C@H](N)CCCc1cc(OC(F)(F)F)c(F)c(-c2cc3cn(-c4ccc([C@H](C)NCCCNC(=N)N)cc4)c(=O)nc3[nH]2)c1` [Compound 316]: the “E. coli ATCC25922 MIC” value was “+ (a “+” indicates that the compound has an MIC value of 16 micrograms/ml or less)”.
The entry for `CC(C)(N)CCCc1cc(-c2cc3cn(-c4ccc(CNCCCNC(=N)N)cc4)c(=O)nc3[nH]2)cc(C(F)(F)F)c1` [Compound 317] is “+ (a “+” indicates that the compound has an MIC value of 16 micrograms/ml or less)”; for `C[C@H](NCCCNC(=N)N)c1ccc(-n2cc3cc(-c4cc(CCCC(C)(C)N)cc(C(F)(F)F)c4)[nH]c3nc2=O)cc1` [Compound 318] it is “+ (a “+” indicates that the compound has an MIC value of 16 micrograms/ml or less)”.
Next, `N=C(N)NCCCNCc1ccc(-n2cc3cc(-c4cc(CCC5(CN)CC5)cc(C(F)(F)F)c4)[nH]c3nc2=O)cc1` [Compound 319]: “+ (a “+” indicates that the compound has an MIC value of 16 micrograms/ml or less)”.
As to `C[C@H](NCCCNC(=N)N)c1ccc(-n2cc3cc(-c4cc(CCC5(CN)CC5)cc(Cl)c4F)[nH]c3nc2=O)cc1` [Compound 320], the “E. coli ATCC25922 MIC” value was “+ (a “+” indicates that the compound has an MIC value of 16 micrograms/ml or less)”.
On to `C[C@H](N)CCCc1cc(Cl)c(OC(F)(F)F)c(-c2cc3cn(-c4ccc(CNCCCNC(=N)N)cc4)c(=O)nc3[nH]2)c1` [Compound 321], for which the “E. coli ATCC25922 MIC” value is given as “+ (a “+” indicates that the compound has an MIC value of 16 micrograms/ml or less)”.
Next, `C[C@H](N)COCc1cc(-c2cc3cn(-c4ccc([C@H](C)NCCCNC(=N)N)cc4)c(=O)nc3[nH]2)cc(C(F)(F)F)c1` [Compound 322]: “+ (a “+” indicates that the compound has an MIC value of 16 micrograms/ml or less)”; `C[C@H](N)COCc1cc(-c2cc3cn(-c4ccc(CNCCCNC(=N)N)cc4)c(=O)nc3[nH]2)cc(C(F)(F)F)c1` [Compound 323]: “+ (a “+” indicates that the compound has an MIC value of 16 micrograms/ml or less)”.
